{"source": "patent US10160812B2", "about": "“Bispecific HER2 antibodies” (MedImmune, LLC, priority 2014, dated 2018)", "key": {"NCI-N87 cell": {"test_system": "NCI-N87 cell", "test": "Proliferation inhibition assay in serum-containing media", "format": "cell-based, human", "description": "Cell viability was determined using Cell Titer Glo from Promega according to manufacturer's instructions."}, "HER2": {"molecular_target": "HER2 (Homo sapiens, UniProt P04626)", "conditions": "reported value; read-out: reported affinity of the parent antibody; cited from earlier work"}}, "data": [{"molecule": "pertuzumab: humanized version of the murine antibody 2C4 that inhibits dimerization of HER2 with other HER receptors [reference compound]", "values": [{"measurement": "inhibition of cell proliferation", "setting": "NCI-N87 cell", "result": "limited activity"}]}, {"molecule": "1.39.1: fully human monoclonal antibody against human HER2, parent of 39S (WO 2008/019290); VH SEQ ID NO:43, VL SEQ ID NO:44 (antibody, V domains shown) VH: EVQLVESGGGLVKPGGSLRLSCAASGFTFSSYSMNWVRQAPGKGLEWVSSISSSSSYIYYADSVKGRFTISRDNAKNSLYLQMNSLRAEDTAVYYCARGGDGYNYYYFDYWGQGTLVTVSS VL: DIVMTQSPDSLAVSLGERATITCKSSQSVFFRSNNKNCLAWYQQRPGQPPNLLIYWASSRESGVPDRFSGSGSGTDFALTISSLQTEDVAVYYCQQYFGSPFTFGPGTKVDIK", "values": [{"measurement": "Kd", "setting": "HER2", "result": "~2", "unit": "nM"}]}]}
